The target in assay [1] is T1, Adenosylmethionine-8-amino-7-oxononanoate aminotransferase (Mycobacterium tuberculosis, UniProt P9WQ81).
T1 sequence (P9WQ81 whole entry): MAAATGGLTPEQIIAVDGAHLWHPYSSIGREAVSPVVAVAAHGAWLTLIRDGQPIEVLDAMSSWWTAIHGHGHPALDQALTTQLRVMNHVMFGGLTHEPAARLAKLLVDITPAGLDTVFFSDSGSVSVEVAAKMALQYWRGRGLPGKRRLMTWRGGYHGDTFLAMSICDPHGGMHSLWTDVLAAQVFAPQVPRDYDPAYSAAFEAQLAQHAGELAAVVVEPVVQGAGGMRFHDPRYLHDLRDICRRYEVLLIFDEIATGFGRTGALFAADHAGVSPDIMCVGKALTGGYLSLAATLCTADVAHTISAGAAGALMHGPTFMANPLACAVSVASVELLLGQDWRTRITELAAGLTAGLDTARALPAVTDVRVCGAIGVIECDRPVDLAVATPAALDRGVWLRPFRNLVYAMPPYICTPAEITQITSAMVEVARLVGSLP
The experiment in a line: Mycobacterium tuberculosis BioA enzyme inhibitor Measured in Biochemical System Using Plate Reader - 2163-02_Inhibitor_Dose_CherryPick_Activity. In kind it is functional, Mycobacterium tuberculosis UT205.

Assay [2] relates to P388/ADR. The experiment in a line: cells. As to conditions: Mus musculus. In kind it is functional.
For assay [3], the system named is SN12K1. Nature of the assay: cells. It counts as functional. The note with it: Homo sapiens.
In assay [4] the test system is P388. Nature of the assay: cells. The note with it: Mus musculus. In kind it is functional.
The nature of assay [5]: inhibitors of intracellular T. cruzi replication, confirmation, NIH3T3 host cells, beta-gal luminescence (AID 2044).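 Also: intracellular parasites grown in NIH/3T3 mouse fibroblasts as host cells; luminescent beta-galactosidase reporter signal from transgenic T. cruzi replicating inside host cells; inhibitors lower the luminescence signal.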 In kind it is functional, cell-based.
The nature of assay [6]: cytotoxicity toward NIH3T3 fibroblasts, dose response, counter-screen, cell-based, ATP luminescence, mouse fibroblasts (AID 2010).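 Also: cells exposed to compound for about 90 hours before reading.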 It counts as functional.
In assay [7] the target is T2, Mannose-6-phosphate isomerase (Homo sapiens, UniProt P34949).
T2 sequence (P34949 whole entry): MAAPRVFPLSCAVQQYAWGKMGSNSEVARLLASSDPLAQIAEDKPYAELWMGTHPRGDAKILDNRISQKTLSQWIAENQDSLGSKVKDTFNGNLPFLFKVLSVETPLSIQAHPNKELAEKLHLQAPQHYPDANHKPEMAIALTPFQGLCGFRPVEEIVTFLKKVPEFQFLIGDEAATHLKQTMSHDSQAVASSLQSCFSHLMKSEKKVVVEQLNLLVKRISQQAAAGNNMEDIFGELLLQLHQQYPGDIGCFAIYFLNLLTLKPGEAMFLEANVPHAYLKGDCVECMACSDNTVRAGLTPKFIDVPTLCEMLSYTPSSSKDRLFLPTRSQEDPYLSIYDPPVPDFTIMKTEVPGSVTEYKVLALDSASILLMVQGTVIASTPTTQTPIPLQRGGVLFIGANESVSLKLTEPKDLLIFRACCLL
Nature of the assay: inhibitors of human PMI, primary screen, biochemical, fluorescence intensity, coupled assay (AID 1209).

The target of assay [8] is Cytochrome P450 3A4 (Homo sapiens, UniProt P08684). As to conditions: Potency.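 Also: confirmatory qHTS run detecting inhibitors and substrates of CYP3A4.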
The target of assay [9] is T3, Tyrosyl-DNA phosphodiesterase 2 (Homo sapiens, UniProt O95551).
T3 sequence (O95551 whole entry): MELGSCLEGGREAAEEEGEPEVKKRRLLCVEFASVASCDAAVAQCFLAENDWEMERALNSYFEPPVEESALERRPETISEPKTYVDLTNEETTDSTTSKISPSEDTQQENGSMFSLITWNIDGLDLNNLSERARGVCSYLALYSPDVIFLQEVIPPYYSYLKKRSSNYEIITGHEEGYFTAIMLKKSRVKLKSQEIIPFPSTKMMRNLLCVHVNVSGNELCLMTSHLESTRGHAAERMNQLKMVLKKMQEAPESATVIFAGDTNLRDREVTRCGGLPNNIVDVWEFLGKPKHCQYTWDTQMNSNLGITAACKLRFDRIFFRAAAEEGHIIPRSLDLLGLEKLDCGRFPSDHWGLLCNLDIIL
Nature of the assay: human TDP2 enzyme inhibitors, dose response, biochemical, epi absorbance, IC50 (AID 743297).

Assay [10] has as its target T4, Probable nicotinate-nucleotide adenylyltransferase (Staphylococcus aureus (strain N315), UniProt P65502). In kind it is functional, Staphylococcus aureus subsp. aureus N315.
The target in assay [11] is T4, Probable nicotinate-nucleotide adenylyltransferase. In kind it is functional, Staphylococcus aureus subsp. aureus N315. As to conditions: read-out: IC50_Mean.
The target of assay [12] is T5, High affinity choline transporter 1 (Homo sapiens, UniProt Q9GZV3).
T5 sequence (Q9GZV3 whole entry): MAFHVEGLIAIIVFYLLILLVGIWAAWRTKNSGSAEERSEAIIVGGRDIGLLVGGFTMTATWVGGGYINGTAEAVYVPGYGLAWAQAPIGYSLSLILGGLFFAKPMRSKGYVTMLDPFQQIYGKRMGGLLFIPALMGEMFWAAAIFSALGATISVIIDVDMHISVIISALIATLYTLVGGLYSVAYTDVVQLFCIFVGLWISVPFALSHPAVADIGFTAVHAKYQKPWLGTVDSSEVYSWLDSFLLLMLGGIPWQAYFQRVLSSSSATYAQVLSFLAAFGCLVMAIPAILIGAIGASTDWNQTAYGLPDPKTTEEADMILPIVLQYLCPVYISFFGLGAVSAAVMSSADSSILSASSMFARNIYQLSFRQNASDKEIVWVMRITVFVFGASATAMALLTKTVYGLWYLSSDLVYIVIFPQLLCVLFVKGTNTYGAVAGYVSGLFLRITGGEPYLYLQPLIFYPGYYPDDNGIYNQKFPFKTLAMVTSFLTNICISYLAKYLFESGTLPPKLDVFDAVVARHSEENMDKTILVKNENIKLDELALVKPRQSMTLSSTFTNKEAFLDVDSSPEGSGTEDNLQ
Nature of the assay: CHT inhibitors, dose response, cell-based, 5-point CRC, membrane potential dye (AID 504840). It counts as functional.

In assay [13] the test system is Streptococcus. The experiment in a line: Group A Streptococcus viability loss, dose response, counter-screen for streptokinase expression inhibitor project, luminescence, BacTiterGlo (AID 1915).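 Also: potency for reduction of bacterial viability or growth.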 In kind it is functional, organism-based.
Assay [14] has as its target T6, Streptokinase A (Streptococcus pyogenes serotype M1, UniProt P10520).
T6 sequence (P10520 whole entry): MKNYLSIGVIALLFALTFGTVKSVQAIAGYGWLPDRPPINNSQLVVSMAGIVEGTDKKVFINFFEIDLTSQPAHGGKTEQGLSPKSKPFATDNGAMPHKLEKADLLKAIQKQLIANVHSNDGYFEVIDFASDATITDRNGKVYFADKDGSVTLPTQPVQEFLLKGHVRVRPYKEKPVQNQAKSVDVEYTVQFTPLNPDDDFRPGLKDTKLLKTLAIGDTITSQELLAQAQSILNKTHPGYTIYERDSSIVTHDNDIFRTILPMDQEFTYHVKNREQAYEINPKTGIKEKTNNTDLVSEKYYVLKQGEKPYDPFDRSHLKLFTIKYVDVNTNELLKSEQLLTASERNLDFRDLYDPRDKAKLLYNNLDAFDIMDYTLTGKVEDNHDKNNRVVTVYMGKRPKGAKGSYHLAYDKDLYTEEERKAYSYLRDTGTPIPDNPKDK
Nature of the assay: S. pyogenes streptokinase expression inhibitors, potency, dose response, plasminogen activation absorbance, OD405 (AID 1914).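 Also: secreted streptokinase activity via plasminogen activation per viability signal from cell pellet.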 In kind it is functional, Streptococcus pyogenes M1 GAS.

The test system of assay [15] is Streptococcus sp. 'group A'. The experiment in a line: growth inhibition of control SK(-) GAS strain, dose response, counter-screen for streptokinase expression inhibitor project, luminescence, kanamycin, BacTiterGlo, confirmation (AID 1900). It counts as functional, organism-based. On the technique in general: The purpose of a counterscreen is to sort out artefacts and off-target activity.

Assay [16] can be described thus: cells. It counts as functional, cell-based.
The nature of assay [17]: cells. It counts as functional, cell-based. This is another data set of the same source.

Values joined by “and” are separate entries in the source; they are usually repeats but may differ in a detail not shown here. Identical values can stand only once. Active and inactive are the calls of the source.
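For IC50 Mean in this document: confirmatory dose-response retesting of NadD inhibitor hits first found in an ultra-high-throughput screen.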

T4 sequence (P65502 whole entry): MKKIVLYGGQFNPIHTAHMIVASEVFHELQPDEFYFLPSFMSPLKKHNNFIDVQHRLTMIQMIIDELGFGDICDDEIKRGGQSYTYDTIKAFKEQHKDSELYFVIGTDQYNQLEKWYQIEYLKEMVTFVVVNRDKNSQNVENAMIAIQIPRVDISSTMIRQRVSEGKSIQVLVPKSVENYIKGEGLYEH
Cytochrome P450 3A4, sequence (P08684 whole entry): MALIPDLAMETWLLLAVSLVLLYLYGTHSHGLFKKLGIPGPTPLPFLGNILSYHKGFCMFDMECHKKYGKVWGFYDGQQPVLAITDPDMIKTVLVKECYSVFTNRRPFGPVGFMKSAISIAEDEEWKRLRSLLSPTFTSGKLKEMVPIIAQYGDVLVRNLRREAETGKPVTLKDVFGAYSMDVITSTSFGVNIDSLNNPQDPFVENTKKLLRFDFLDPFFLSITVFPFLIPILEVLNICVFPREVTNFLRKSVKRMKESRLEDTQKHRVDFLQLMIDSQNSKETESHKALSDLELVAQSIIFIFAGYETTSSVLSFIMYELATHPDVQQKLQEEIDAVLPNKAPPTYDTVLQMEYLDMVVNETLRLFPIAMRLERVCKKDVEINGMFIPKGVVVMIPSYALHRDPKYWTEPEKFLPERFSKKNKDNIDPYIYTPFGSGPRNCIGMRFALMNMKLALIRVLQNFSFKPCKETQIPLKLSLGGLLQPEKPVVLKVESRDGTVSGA

In general, AC50 refers to the midpoint of the concentration-response curve, whichever way the signal moves. Consider `O=C(Nc1cccnc1)C1CCN(S(=O)(=O)c2ccc(Cl)cc2)CC1`, for which the AC50 in assay [1] is 0.711 µM (active).
One may read the GI50 as the concentration at which growth is held to half of that of the control. Regarding `CSCC[C@@H](NC(=O)[C@H](CC(C)C)NC(=O)C(Cc1cnc[nH]1)NC(=O)CNC(=O)[C@@H](NC(=O)[C@H](C)NC(=O)[C@H](Cc1cn(C=O)c2ccccc12)NC(=O)[C@H](CCC(N)=O)NC(=O)[C@@H](N)CC(N)=O)C(C)C)C(N)=O` (stereo partly specified), the GI50 in assay [2], in [3] and in assay [4] was > 100 µM (inactive) throughout.
As to `Cc1[nH]c(=O)[nH]c(=O)c1/C=C/C(=O)NC(CO)CC(C)C` (stereo unspecified), the GI50 in assay [2] is 174 µM (inactive); in assay [3], > 360 µM (inactive); in assay [4], > 375 µM (inactive).
Broadly, the EC50 is the concentration needed to bring the measured effect to its halfway point. As for `CN(C)C(S)=Nc1nc2ccccc2s1`, the EC50 was 2.48 µM (active) in [5] and > 60 µM (not active) in [6]. In addition, the IC50 in [7] is 3.79 µM (active).
On to `COC(=O)C1=C(C)N(Cc2ccccc2)[C@]23O[C@](C(=O)OC)(C(=O)N2C1c1ccccc1)C1C(=O)N(c2ccccc2)C(=O)C13` (stereo partly specified), for which, in assay [8], the concentration at half-maximal activity (AC50) is 5.01 µM (inconclusive) and 3.98 µM (inconclusive).
`O=C(Nc1c(-c2ccc3c(c2)OCO3)[nH][nH]c1=O)c1ccc2c(c1)OCO2`: in assay [9], the IC50 is > 129 µM (inactive).
As for `Cc1ccccc1CSCC1Nc2ccc(C(=O)NCCc3ccccc3)cc2NC1=O` (stereo unspecified), the IC50 in assay [10] is 6.55 µM (active); in [11] it was 17.2 µM (active).
`C[C@@H](CO)NC(=O)[C@@H]1C=C2c3cccc4[nH]cc(c34)C[C@H]2N(C)C1` [ERGONOVINE]: the AC50 in assay [8] was 20 µM (inconclusive).
`COCC(=O)N1CC[C@@H]2[C@@H](CO)N(C)c3ccc(-c4ccc(F)cc4)cc3[C@@H]21`: the half-maximal activity concentration (AC50) in [1] was 0.948 µM (active).
Turning to `N#CC1=C(S)N=C(N)C(c2nc(-c3ccccc3)cs2)C12CCCC2` (stereo unspecified), the IC50 in assay [10] is 8.09 µM (active); in assay [11], 19.1 µM (active).
As to `CC(C)(C)S(=O)(=O)/C(C#N)=N/Nc1ccc(C#N)cc1`, the IC50 in [12] is 12 µM (active).
As to `Cc1cnc(C(=O)NC2CC(C)(C)Cc3c2cnn3-c2cccc(F)c2)cn1` (stereo unspecified), the half-maximal activity concentration (AC50) in assay [1] is 1.63 µM (active).
As to `Cc1ccnc(NS(=O)(=O)c2ccc(NC(=O)c3cc(-c4ccc(Br)cc4)nc4ccccc34)cc2)n1`, the IC50 in [10] was 7.03 µM (active); in assay [11], 20.9 µM (active). In addition, the EC50 was 68.9 µM (active) in assay [13], 5.84 µM (inconclusive) in assay [14] and 7.74 µM (active) in assay [15].
Consider `CN(Cc1ccccc1)S(=O)(=O)c1ccc2ncc(C(=O)NCC3CCCO3)c(O)c2c1` (stereo unspecified), for which the IC50 in assay [12] was 15.2 µM (active).
In the case of `O=C(NC(c1ccccc1)c1ccccc1)C1CCCO1` (stereo unspecified), the half-maximal effective concentration (EC50) in assay [16] and in [17] was > 350 µM (not active) in each case.
`C=CCn1c(SCc2c(C(=O)OC)sc(N)c2C(=O)OC)nnc1-c1ccc(Cl)cc1`: the AC50 in [1] was 0.244 µM (active).
Turning to `OCC(O)Cc1ccc2c(c1)OCO2` (stereo unspecified) [SAFROLGLYCOL], the AC50 in assay [8] is 39.8 µM (inconclusive).
Turning to `CCOc1cc(C=C2C(=O)NC(=O)NC2=O)ccc1OS(=O)(=O)c1ccccc1`, the IC50 in [12] is 12.6 µM (active).
For `CC1CCC2C(=O)OC(Cc3ccccc3)CN2C1c1ccc(Br)cc1` (stereo unspecified), the concentration at half-maximal activity (AC50) in [8] was 3.98 µM (inconclusive) and 5.01 µM (inconclusive).
For the compound `COc1ccc(OC)c(NC2=NCCCS2)c1`, the EC50 in [16] and in assay [17] was > 350 µM (not active) in each case.
Take `O=C(c1cccc(F)c1)N1CC[C@@H]2[C@@H](CO)Nc3ccc(-c4cccc(F)c4)cc3[C@@H]21`: the half-maximal activity concentration (AC50) in assay [1] is 0.222 µM (active).
On to `Cc1n(CC(=O)c2ccc([N+](=O)[O-])cc2)c2c([n+]1CC(C)C)C(=O)c1ccccc1C2=O`, for which the GI50 is 22.2 µM (inactive) in [2], < 0.01 µM (active) in assay [3] and 0.194 µM (active) in assay [4].
As to `Cc1ccc(N2Cc3c(ccc4ccccc34)OP2(=S)N2CCCC2)cc1` (stereo unspecified), the GI50 in assay [2] is 26.2 µM (inactive); in assay [3], > 77.6 µM (inactive); in assay [4], 18.6 µM (inactive).
For `CO[C@H](C(=O)[C@@H](O)[C@@H](C)O)[C@@H]1Cc2cc3cc(OC4CC(OC5CC(O)C(O)C(C)O5)C(O)C(C)O4)c(C)c(O)c3c(O)c2C(=O)[C@H]1OC1CC(OC2CC(OC3CC(C)(O)C(O)C(C)O3)C(O)C(C)O2)C(O)C(C)O1` (stereo partly specified) the same measures were 1.33 µM (inactive), 0.348 µM (active) and 0.441 µM (active).
For `NCCCCCC(CCN)SCC1OC(n2cnc3c(N)ncnc32)C(O)C1O` (stereo unspecified) the same measures were 124 µM (inactive), 431 µM (inactive) and 637 µM (inactive).
Take `CCCCC(Br)C(=O)Nc1ccc(S(=O)(=O)Nc2cc(C)nc(C)n2)cc1` (stereo unspecified): in [12], the IC50 was 15.9 µM (active).
As to `O=C(COC(=O)c1ccccc1Nc1ccccc1)NCc1ccccc1Cl`, the concentration giving a half-maximal response (EC50) in assay [16] and in assay [17] was > 350 µM (not active) each time.
As to `CCN(CC)CCCC(C)n1c(-c2ccccc2)nc2c(NCCOC)nc(C)nc21` (stereo unspecified), the AC50 in assay [8] was 20 µM (inconclusive).

For the origin of these results see ChEMBL document CHEMBL1201862, “PubChem BioAssay data set” (2004).
